Key:
GSK3β = GSK3β (Homo sapiens, UniProt P49841); test: GSK3β in vitro enzymatic assay (Kinase-Glo Max luminescence); format: biochemical; settings: recombinant human GSK3, 10 μM ATP; approximate values; read-out: Potency GSK3beta
Protocol: (§1) Enzymatic activities of compounds of the present disclosure can be tested using recombinant human GSK3 in an in vitro enzymatic assay to determine the ability of the compounds of the present disclosure to inhibit GSK3α and GSK3β.
(§2) The assay was performed using Kinase-Glo® Max luminescence kinase assay kit (Promega). The assay measures kinase activity by quantitating the amount of ATP remaining in solution following a kinase reaction. The luminescent signal from the assay is correlated with the amount of ATP present and is inversely correlated with the amount of kinase activity.
(§3) To perform the assay, compounds were diluted in 10% DMSO and 5 μl of the dilution was added to a 50 μl reaction so that the final concentration of DMSO was 1% in all of reactions. The enzymatic reactions were conducted at 30° C. for 40 minutes. The 50 μl reaction mixture contained 40 mM Tris, pH 7.4, 10 mM MgCl2, 0.1 mg/ml BSA, 2 mM DTT, 0.1 mg/ml GSK tide substrate, 10 uM ATP and GSK3. After the enzymatic reaction, 50 μl of Kinase-Glo Max Luminescence kinase assay solution (Promega) was added to each reaction and plates were incubated for 15 minutes at room temperature. Luminescence signal was measured using a BioTek Synergy 2 microplate reader.
(§4) Kinase activity assays were performed in duplicate at each concentration. The luminescence data were analyzed using the computer software, GraphPad Prism. The difference between luminescence intensities in the absence of Kinase (Lut) and in the presence of Kinase (Luc) was defined as 100% activity (Lut-Luc). Using luminescence signal (Lu) in the presence of the compound, percent activity was calculated as: % activity={(Lut-Lu)/(Lut-Luc)}×100%, where Lu=the luminescence intensity in the presence of the compound (all percent activities below zero were shown zero in the table).
(§5) The values of percent activity versus a series of compound concentrations were then plotted using non-linear regression analysis of Sigmoidal dose-response curve generated with the equation Y=B+(T−B)/1+10((LogEC50−X)×Hill Slope), where Y=percent activity, B=minimum percent activity, T=maximum percent activity, X=logarithm of compound and Hill Slope=slope factor or Hill coefficient. The ICs, value was determined by the concentration causing a half-maximal percent activity.

GSK3α = GSK3α (Homo sapiens, UniProt P49840); test: GSK3α in vitro enzymatic assay (Kinase-Glo Max luminescence); format: biochemical; settings: recombinant human GSK3, 10 μM ATP; approximate values; read-out: Potency GSK3alpha
Protocol: as §1, §2, §3, §4, §5

LSD-1 = LSD-1 (Homo sapiens, UniProt O60341); test: LSD-1 A-screen (AlphaScreen) demethylase enzymatic assay; format: biochemical; settings: approximate values; for inhibition at 50 µM: read-out: Potency LSD-1 % Inhibition at 50 μM
Protocol: (§6) Enzymatic activities of compounds of the present disclosure can be tested with recombinant human LSD using an in vitro enzymatic assay to determine the ability of the compounds of the present disclosure to inhibit LSD-1 and LSD2. Examples of the assay are provided below.
(§7) All of the enzymatic reactions were conducted in duplicate at room temperature for 60 minutes in a 10 μL mixture containing assay buffer, histone H3 peptide substrate, demthylase enzyme, and the test compound. These 10 μL reactions were carried out in wells of a 384-well Optiplate (PerkinElmer). The dilution of the compounds was first performed in 100% DMSO with the highest concentration at 5 mM Each intermediate compound dilution (in 100% DMSO) was then directly diluted 30× fold into assay buffer for 3.3× concentration (DMSO). […] From this intermediate step, 3 μL of compound was added to 4 μL of demethylase enzyme dilution was incubated for 30 minutes at room temperature. After this incubation, 3 μL of peptide substrate was added. The final DMSO concentration was 1%. After enzymatic reactions, 5 μL of anti-Mouse or anti-Rabbit Acceptor beads (PerkinElmer, diluted 1:500 with 1× detection buffer) and […] (BPS, diluted 1:800 with 1× detection buffer) were added to the reaction mix. After brief shaking, the plate was incubated for 30 minutes. Finally, 10 μL of AlphaScreen™ Streptavidin-conjugated donor beads (Perkin, diluted 1:125 with 1× detection buffer) were added. After 30 minutes, the samples were measured in an AlphaScreen microplate reader (EnSpire Alpha 2390 Multilabel Reader, Perkin Elmer).
(§8) Enzyme activity assays were performed in duplicates at each concentration. The A-screen intensity data were analyzed and compared. In the absence of the compound, the intensity in each data set was defined as 100% (Ce) activity. In the absence of enzyme, the intensity in each data set was defined as 0% (C0) activity. The percent activity in the presence of each compound was calculated according to the following equation: % activity=(C−C0)/(Ce−C0), where C=the intensity in the presence of the compound.
as §5, with “value” for “values”, “was” for “were”, “IC50” for “ICs,”

LSD2 = molecular target: T1, LSD2 (Homo sapiens, UniProt Q8NB78); test: LSD2 A-screen (AlphaScreen) demethylase enzymatic assay; format: biochemical; settings: 50 μM compound, approximate values; for inhibition at 50 µM: read-out: Potency LSD-2 % Inhibition at 50 μM
T1 sequence (Q8NB78 1-822): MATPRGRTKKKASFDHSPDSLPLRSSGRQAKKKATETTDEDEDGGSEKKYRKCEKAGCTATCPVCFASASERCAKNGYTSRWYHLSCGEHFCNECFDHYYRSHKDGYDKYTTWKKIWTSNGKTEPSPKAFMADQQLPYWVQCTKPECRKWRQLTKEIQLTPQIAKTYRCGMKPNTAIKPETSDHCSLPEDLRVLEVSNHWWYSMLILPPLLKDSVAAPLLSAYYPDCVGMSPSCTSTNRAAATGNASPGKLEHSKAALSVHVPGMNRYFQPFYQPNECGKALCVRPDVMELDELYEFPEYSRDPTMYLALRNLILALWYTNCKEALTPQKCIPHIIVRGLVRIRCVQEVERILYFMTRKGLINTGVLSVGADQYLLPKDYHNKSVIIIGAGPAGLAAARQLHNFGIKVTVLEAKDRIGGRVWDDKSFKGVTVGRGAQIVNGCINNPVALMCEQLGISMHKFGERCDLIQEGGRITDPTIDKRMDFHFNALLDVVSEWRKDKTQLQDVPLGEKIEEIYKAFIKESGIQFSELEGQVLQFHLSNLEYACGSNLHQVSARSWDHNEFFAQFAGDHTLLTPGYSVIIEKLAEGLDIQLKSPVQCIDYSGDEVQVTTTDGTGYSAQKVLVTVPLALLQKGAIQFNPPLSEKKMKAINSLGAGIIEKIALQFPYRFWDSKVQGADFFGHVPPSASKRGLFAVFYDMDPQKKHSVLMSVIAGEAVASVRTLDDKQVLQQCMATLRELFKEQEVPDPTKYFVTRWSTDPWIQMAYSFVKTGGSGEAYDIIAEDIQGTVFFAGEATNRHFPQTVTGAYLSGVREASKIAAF
Protocol: as §6, §7, §8
as §5, with “value” for “values”, “was” for “were”, “IC50” for “ICs,”

[1] = system: Lgr5+ cells (cochlear stem cells); test: Lgr5+ assay: expansion of Lgr5-positive cochlear cells in 3D culture; format: cell-based, mouse
Text: “Stem Cell Proliferation Assay” as used herein is an assay to determine the capacity for agent(s) to induce the creation of stem cells from a starting cell population. In an exemplary Stem Cell Proliferation Assay, the number of cells for an initial cell population is harvested from a Lgr5-GFP mouse such as a B6.129P2-Lgr5tm1(cre/ERT2)Cle/J mouse (also known as Lgr5-EGFP-IRES-creERT2 or Lgr5-GFP mouse, Jackson Lab Stock No: 008875) between the age of 3 to 7 days, by isolating the organ of Corti sensory epithelium and dissociating the epithelium into single cells. Approximately 5000 cells are entrapped in 40 μl of culture substrate (for example, Matrigel (Corning, Growth Factor Reduced)) and placed at the center of wells in a 24-well plate with 500 μl of an appropriate culture media, growth factors and agent being tested. Appropriate culture media and growth factors include Advanced DMEM/F12 with media supplements (1×N2, 1×B27, 2 mM Glutamax, 10 mM HEPES, 1 mM N-acetylcysteine, and 100 U/ml penicillin/100 μg/ml streptomycin) and growth factors (50 ng/ml EGF, 50 ng/ml bFGF, and 50 ng/ml IGF-1) as well as the agent(s) being assessed are added into each well. Cells are cultured for 10 days in a standard cell culture incubator at 37° C. and 5% CO2, with media change every 2 days. The number of Lgr5^+ cells is quantified by counting the number of cells identified as Lgr5+ in an in vitro Lgr5 activity assay (i.e., an assay mearing in vitro Lgr5 activity). The fraction of cells that are Lgr5^+ is quantified by dividing the number of cells identified as Lgr5^+ in a cell population by the total number of cells present in the cell population. The average Lgr5^+ activity of a population is quantified by measuring the average mRNA expression level of Lgr5 of the population normalized using suitable and unregulated references or housekeeping genes (e.g., Hprt). The number of hair cells in a population may be measured by staining with hair cell marker (e.g., MyosinVIIa), or using an endogenous reporter of hair cell genes (e.g., Pou4f3-GFP, Atoh1-nGFP) and analyzing using flow cytometry. The fraction of cells that are hair cells is quantified by dividing the number of cells identified as hair cells in a cell population by the total number of cells present in the cell population. Lgr5 activity can be measured by qPCR.
The compounds of the present disclosure were used in Lgr5-EGFP-IRES-Cre-ER mice (Barker et al., 2007) to analyze the effects of small molecules on cochlear stem cell expansion.
Isolation of stem cells from the inner ear: All animal studies were conducted under an approved institutional protocol according to National Institutes of Health guidelines. For experiments with neonatal mice (postnatal days 1-3), the cochleae were dissected in Hank's Balanced Salt Solution (HBSS) and the organs of Corti were separated from the stria vascularis and the modiolus. The organs of Corti were then treated with Cell Recovery Solution (Corning) for 1 hour to separate cochlear epithelium from the underlying mesenchyme. Epithelia were then collected and treated with TrypLE (Life Technologies) for 15-20 minutes at 37° C. Single cells obtained by mechanical trituration were filtered (40 μm) and suspended in Matrigel® (Corning) for 3D culture.
Cells were cultured in a 1:1 mixture of DMEM and F12, supplemented with Glutamax (GIBCO), N2, B27 (Invitrogen), EGF (50 ng/ml; Chemicon), bFGF (50 ng/ml; Chemicon), IGF1 (50 ng/ml; Chemicon) and the composition provided herein. Medium was changed every other day.
Lgr5-positive cells were quantified after 10 days (D10) in culture in multiple conditions. Cell colonies were dissociated into single cells using TrypLE (Gibco). The cells were then stained with propidium iodide (P1) and were analyzed using a flow cytometer for Lgr5-GFP expression. The number of GFP-positive cells and the percentage of GFP-positive cells were quantified. […]

[2] = in a background of growth factors, compared to CHIR-99021 and its combinations (figures)

Sequence of GSK3α (P49840 whole entry): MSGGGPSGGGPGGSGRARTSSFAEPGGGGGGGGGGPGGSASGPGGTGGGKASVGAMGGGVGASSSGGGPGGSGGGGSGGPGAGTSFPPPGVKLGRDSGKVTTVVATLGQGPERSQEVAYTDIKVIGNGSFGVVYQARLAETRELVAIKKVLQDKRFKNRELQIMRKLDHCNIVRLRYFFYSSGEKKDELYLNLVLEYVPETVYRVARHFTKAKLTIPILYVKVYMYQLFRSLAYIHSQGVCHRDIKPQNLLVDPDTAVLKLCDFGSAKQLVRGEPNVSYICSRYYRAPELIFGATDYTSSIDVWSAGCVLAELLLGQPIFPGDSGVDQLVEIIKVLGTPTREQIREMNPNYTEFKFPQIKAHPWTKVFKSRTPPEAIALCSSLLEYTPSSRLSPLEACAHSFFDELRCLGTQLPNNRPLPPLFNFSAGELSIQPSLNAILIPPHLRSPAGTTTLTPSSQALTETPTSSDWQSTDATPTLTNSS
Sequence of GSK3β (P49841 whole entry): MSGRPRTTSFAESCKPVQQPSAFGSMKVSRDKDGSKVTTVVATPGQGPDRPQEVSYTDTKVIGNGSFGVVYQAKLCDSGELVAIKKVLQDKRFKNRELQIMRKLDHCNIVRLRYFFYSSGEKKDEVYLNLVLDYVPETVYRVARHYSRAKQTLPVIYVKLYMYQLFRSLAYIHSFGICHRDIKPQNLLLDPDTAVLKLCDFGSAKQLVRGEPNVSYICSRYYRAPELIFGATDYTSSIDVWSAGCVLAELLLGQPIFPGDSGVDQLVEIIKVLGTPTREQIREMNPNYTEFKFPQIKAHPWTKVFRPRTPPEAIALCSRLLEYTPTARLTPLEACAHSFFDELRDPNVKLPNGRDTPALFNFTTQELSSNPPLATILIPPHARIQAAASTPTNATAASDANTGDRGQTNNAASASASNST

SMILES: CCn1cc(C(=O)O)c(=O)c2c(N)c(F)c(N[C@@H]3C[C@H]3c3ccccc3)cc21 (single isomer, unassigned) [Compound I-63]
- IC50 (GSK3β): > 10 µM
- IC50 (GSK3α): > 10 µM
- Potency LSD-1 % Inhibition at 50 μM (LSD-1; 50 μM compound, 50 µM): 26% @ 50 μM
- Potency LSD-2 % Inhibition at 50 μM (LSD2; 50 µM): 6%

SMILES: CCn1cc(C(=O)O)c(=O)c2c(N)c(F)c(N[C@@H]3C[C@H]3c3ccccc3)cc21 (relative stereo) [Compound I-20]
- Potency (Lgr5+ activity) ([1]; effective concentration for Lgr5+ expansion, 10 days culture with EGF, bFGF, IGF1, approximate values): 1.1 µM
- Lgr5 GFP+ progenitor cell proliferation (Lgr5 positive cell count) [1, 2]: generate Lgr5 GFP+ progenitor cell proliferation
- enrichment of Lgr5 GFP+ cochlear progenitor cells (percent of Lgr5 positive cells) [1, 2]: generates enrichment of Lgr5 GFP+ cochlear progenitor cells

SMILES: Nc1c(F)c(NCCN[C@@H]2C[C@H]2c2ccccc2)cc2c1c(=O)c(C(=O)O)cn2CCO (relative stereo) [Compound I-90]
- IC50 (GSK3β): 1.6 µM
- IC50 (GSK3α): 0.99 µM
- IC50 (LSD-1; read-out: Potency LSD-1 IC50): 8.5 µM
- inhibition at 50 µM (LSD2): 8%

SMILES: CCn1cc(C(=O)O)c(=O)c2c(N)cc(NC3CCCCC3)c(F)c21 [Compound I-64]
- IC50 (GSK3β): > 10 µM
- IC50 (GSK3α): > 10 µM
- inhibition at 50 µM (LSD-1; 50 μM compound): 72%
- inhibition at 50 µM (LSD2): 2%

SMILES: CCn1cc(C(=O)O)c(=O)c2c(N)cc(NCCc3ccccc3)cc21 [Compound I-56]
- IC50 (GSK3β): > 10 µM
- IC50 (GSK3α): > 10 µM
- inhibition at 50 µM (LSD-1; 50 μM compound): 56%
- inhibition at 50 µM (LSD2): 28%

SMILES: CCn1cc(C(=O)O)c(=O)c2c(F)cc(NCc3ccccc3)cc21 [Compound I-55]
- IC50 (GSK3β): > 10 µM
- IC50 (GSK3α): > 10 µM

SMILES: CCn1cc(C(=O)O)c(=O)c2c(N)c(F)c(OCCc3ccccc3)cc21 [Compound I-52]
- IC50 (GSK3β): > 10 µM
- IC50 (GSK3α): > 10 µM
- inhibition at 50 µM (LSD-1; 50 μM compound): 0%
- inhibition at 50 µM (LSD2): 3%

SMILES: CCn1cc(C(=O)O)c(=O)c2c(N)cc(NC3CCCCC3)cc21 [Compound I-58]
- IC50 (GSK3β): > 10 µM
- IC50 (GSK3α): > 10 µM
- inhibition at 50 µM (LSD-1; 50 μM compound): 77%
- inhibition at 50 µM (LSD2): 7%

From patent US20230058189A1, “QUINOLIN-4-ONE AND 4(1H)-CINNOLINONE COMPOUNDS AND METHODS OF USING SAME” (Frequency Therapeutics, Inc., priority 2019, published 2023)
